ChEMBL document CHEMBL4507257, “Data for DCP probe ABT-100” (2021)

Key:
[1] = target: Interleukin-1 receptor-associated kinase 4 (Homo sapiens) (UniProt Q9NWZ3); conditions: Compound concentration 1000.0 nM
[2] = target: Epithelial discoidin domain-containing receptor 1 (Homo sapiens) (UniProt Q08345); conditions: Compound concentration 1000.0 nM
[3] = target: Rho-associated protein kinase 1 (Homo sapiens) (UniProt Q13464); conditions: Compound concentration 1000.0 nM
[4] = target: 1-phosphatidylinositol 3-phosphate 5-kinase (Homo sapiens) (UniProt Q9Y2I7); conditions: Compound concentration 1000.0 nM
[5] = target: Ribosomal protein S6 kinase beta-1 (Homo sapiens) (UniProt P23443); conditions: Compound concentration 1000.0 nM
[6] = target: Serine/threonine-protein kinase Nek2 (Homo sapiens) (UniProt P51955); conditions: Compound concentration 1000.0 nM
[7] = target: Calcium/calmodulin-dependent protein kinase type IV (Homo sapiens) (UniProt Q16566); conditions: Compound concentration 1000.0 nM
[8] = target: Serine/threonine-protein kinase PAK 3 (Homo sapiens) (UniProt O75914); conditions: Compound concentration 1000.0 nM
[9] = target: Alpha-1B adrenergic receptor (Homo sapiens) (UniProt P35368); conditions: Compound concentration 10.0 uM
[10] = target: Receptor-type tyrosine-protein kinase FLT3 (Homo sapiens) (UniProt P36888); conditions: Compound concentration 1000.0 nM
[11] = target: Dual specificity protein kinase CLK3 (Homo sapiens) (UniProt P49761); conditions: Compound concentration 1000.0 nM
[12] = target: Serine/threonine-protein kinase 25 (Homo sapiens) (UniProt O00506); conditions: Compound concentration 1000.0 nM
[13] = target: Mitogen-activated protein kinase 1 (Homo sapiens) (UniProt P28482); conditions: Compound concentration 1000.0 nM
[14] = target: Casein kinase II subunit alpha (Homo sapiens) (UniProt P68400); conditions: Compound concentration 1000.0 nM
[15] = target: Death-associated protein kinase 2 (Homo sapiens) (UniProt Q9UIK4); conditions: Compound concentration 1000.0 nM
[16] = target: Protein kinase C theta type (Homo sapiens) (UniProt Q04759); conditions: Compound concentration 1000.0 nM
[17] = target: T1, D(4) dopamine receptor (Homo sapiens) (UniProt P21917); conditions: Compound concentration 10.0 uM
T1 sequence (whole entry): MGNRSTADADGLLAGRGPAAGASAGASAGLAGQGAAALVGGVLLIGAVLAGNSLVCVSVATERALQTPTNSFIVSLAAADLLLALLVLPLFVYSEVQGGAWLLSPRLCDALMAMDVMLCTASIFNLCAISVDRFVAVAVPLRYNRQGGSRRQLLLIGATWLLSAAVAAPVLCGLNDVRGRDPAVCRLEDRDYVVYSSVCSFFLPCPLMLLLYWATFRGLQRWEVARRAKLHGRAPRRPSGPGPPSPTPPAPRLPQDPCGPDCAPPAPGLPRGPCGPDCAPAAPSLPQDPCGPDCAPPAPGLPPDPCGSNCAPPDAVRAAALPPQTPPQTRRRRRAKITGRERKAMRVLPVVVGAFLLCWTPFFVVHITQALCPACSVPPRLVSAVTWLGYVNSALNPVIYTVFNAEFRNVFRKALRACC

[18] = target: Maternal embryonic leucine zipper kinase (Homo sapiens) (UniProt Q14680); conditions: Compound concentration 1000.0 nM
[19] = tested on: Tyrosine-protein kinase ABL1 (Homo sapiens), P00519 [E255K]; conditions: Compound concentration 1000.0 nM
[20] = target: Kappa-type opioid receptor (Homo sapiens) (UniProt P41145); conditions: Compound concentration 10.0 uM
[21] = target: Serine/threonine-protein kinase DCLK1 (Homo sapiens) (UniProt O15075); conditions: Compound concentration 1000.0 nM
[22] = target: Calcium/calmodulin-dependent protein kinase type II subunit alpha (Homo sapiens) (UniProt Q9UQM7); conditions: Compound concentration 1000.0 nM
[23] = target: RAF proto-oncogene serine/threonine-protein kinase (Homo sapiens) (UniProt P04049); conditions: Compound concentration 1000.0 nM
[24] = tested on: Receptor-type tyrosine-protein kinase FLT3 (Homo sapiens), P36888 [N841I]; conditions: Compound concentration 1000.0 nM
[25] = target: Ephrin type-B receptor 6 (Homo sapiens) (UniProt O15197); conditions: Compound concentration 1000.0 nM
[26] = target: Glycogen synthase kinase-3 beta (Homo sapiens) (UniProt P49841); conditions: Compound concentration 1000.0 nM
[27] = target: Macrophage-stimulating protein receptor (Homo sapiens) (UniProt Q04912); conditions: Compound concentration 1000.0 nM
[28] = target: Serine/threonine-protein kinase Nek7 (Homo sapiens, UniProt Q8TDX7); conditions: Compound concentration 1000.0 nM
[29] = target: Calcium/calmodulin-dependent protein kinase type 1D (Homo sapiens) (UniProt Q8IU85); conditions: Compound concentration 1000.0 nM
[30] = target: Cyclin-dependent kinase 8 (Homo sapiens) (UniProt P49336); conditions: Compound concentration 1000.0 nM
[31] = target: Sigma intracellular receptor 2 (Homo sapiens) (UniProt Q5BJF2); conditions: Compound concentration 10.0 uM
[32] = target: Testis-specific serine/threonine-protein kinase 1 (Homo sapiens) (UniProt Q9BXA7); conditions: Compound concentration 1000.0 nM
[33] = target: Beta-adrenergic receptor kinase 1 (Homo sapiens) (UniProt P25098); conditions: Compound concentration 1000.0 nM
[34] = target: Dual specificity protein kinase CLK2 (Homo sapiens) (UniProt P49760); conditions: Compound concentration 1000.0 nM
[35] = target: Calcium/calmodulin-dependent protein kinase type II subunit gamma (Homo sapiens) (UniProt Q13555); conditions: Compound concentration 1000.0 nM
[36] = target: Citron Rho-interacting kinase (Homo sapiens) (UniProt O14578); conditions: Compound concentration 1000.0 nM
[37] = target: Interleukin-1 receptor-associated kinase 3 (Homo sapiens) (UniProt Q9Y616); conditions: Compound concentration 1000.0 nM
[38] = target: Protein kinase C eta type (Homo sapiens) (UniProt P24723); conditions: Compound concentration 1000.0 nM
[39] = target: Serine/threonine-protein kinase WNK4 (Homo sapiens) (UniProt Q96J92); conditions: Compound concentration 1000.0 nM
[40] = target: Epidermal growth factor receptor (Homo sapiens) (UniProt P00533); conditions: Compound concentration 1000.0 nM

Macrophage-stimulating protein receptor (Homo sapiens), sequence (Q04912 25-304 limits assumed): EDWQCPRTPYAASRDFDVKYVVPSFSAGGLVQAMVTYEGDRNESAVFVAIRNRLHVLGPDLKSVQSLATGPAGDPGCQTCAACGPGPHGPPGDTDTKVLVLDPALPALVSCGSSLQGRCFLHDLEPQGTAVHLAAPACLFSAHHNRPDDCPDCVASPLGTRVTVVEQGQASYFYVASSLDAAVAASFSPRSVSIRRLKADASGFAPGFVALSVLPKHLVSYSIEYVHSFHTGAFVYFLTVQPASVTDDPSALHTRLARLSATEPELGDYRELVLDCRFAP
Macrophage-stimulating protein receptor (Homo sapiens), sequence (Q04912 310-1400 limits assumed): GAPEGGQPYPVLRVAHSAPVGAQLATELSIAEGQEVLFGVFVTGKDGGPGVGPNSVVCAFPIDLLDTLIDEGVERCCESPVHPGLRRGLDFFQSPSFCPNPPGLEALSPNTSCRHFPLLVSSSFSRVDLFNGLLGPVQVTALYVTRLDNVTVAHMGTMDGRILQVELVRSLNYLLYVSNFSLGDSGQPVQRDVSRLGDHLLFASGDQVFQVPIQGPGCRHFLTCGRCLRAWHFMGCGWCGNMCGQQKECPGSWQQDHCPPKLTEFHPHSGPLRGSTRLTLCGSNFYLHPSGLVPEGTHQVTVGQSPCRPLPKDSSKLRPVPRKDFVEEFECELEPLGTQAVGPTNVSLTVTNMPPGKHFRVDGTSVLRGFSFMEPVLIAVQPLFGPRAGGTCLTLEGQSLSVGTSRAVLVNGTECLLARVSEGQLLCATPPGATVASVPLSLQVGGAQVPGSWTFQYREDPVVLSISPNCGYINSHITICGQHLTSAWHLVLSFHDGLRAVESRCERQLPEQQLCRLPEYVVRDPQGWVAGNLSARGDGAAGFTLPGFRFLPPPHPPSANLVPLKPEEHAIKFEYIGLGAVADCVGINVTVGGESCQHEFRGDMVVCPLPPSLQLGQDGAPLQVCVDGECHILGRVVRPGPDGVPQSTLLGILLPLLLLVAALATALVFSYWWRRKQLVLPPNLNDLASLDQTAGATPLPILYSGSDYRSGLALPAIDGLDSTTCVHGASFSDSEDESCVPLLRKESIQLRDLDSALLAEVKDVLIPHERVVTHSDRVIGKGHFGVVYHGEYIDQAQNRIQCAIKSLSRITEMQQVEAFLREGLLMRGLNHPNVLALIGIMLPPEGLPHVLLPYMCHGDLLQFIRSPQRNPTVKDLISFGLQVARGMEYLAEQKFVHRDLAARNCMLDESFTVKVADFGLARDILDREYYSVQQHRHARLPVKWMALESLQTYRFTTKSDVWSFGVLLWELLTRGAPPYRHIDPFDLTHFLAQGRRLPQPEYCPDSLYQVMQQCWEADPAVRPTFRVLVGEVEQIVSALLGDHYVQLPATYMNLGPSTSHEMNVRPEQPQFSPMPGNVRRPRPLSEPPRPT
Casein kinase II subunit alpha (Homo sapiens), sequence (P68400 whole entry, looked up): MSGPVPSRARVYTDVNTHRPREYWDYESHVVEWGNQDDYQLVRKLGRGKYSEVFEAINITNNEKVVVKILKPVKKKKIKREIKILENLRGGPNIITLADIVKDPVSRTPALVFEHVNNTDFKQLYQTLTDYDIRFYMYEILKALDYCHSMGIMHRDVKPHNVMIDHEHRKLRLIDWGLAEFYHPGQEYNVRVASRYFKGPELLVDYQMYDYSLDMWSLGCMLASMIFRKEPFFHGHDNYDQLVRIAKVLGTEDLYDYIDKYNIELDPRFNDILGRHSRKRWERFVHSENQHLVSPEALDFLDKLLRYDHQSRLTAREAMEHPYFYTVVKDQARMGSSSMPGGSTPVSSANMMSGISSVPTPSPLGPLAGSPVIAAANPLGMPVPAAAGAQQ
Mitogen-activated protein kinase 1 (Homo sapiens), sequence (P28482 whole entry): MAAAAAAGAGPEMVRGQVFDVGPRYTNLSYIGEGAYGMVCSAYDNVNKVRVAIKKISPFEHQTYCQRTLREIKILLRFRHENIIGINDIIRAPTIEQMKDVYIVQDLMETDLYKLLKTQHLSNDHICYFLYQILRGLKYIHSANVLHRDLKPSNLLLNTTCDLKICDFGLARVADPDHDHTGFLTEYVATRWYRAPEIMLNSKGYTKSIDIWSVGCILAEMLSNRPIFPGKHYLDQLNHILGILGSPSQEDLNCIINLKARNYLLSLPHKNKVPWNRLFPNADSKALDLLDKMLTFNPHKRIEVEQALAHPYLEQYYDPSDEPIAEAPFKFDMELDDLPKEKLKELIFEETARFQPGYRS
Dual specificity protein kinase CLK3 (Homo sapiens), sequence (P49761 whole entry, looked up): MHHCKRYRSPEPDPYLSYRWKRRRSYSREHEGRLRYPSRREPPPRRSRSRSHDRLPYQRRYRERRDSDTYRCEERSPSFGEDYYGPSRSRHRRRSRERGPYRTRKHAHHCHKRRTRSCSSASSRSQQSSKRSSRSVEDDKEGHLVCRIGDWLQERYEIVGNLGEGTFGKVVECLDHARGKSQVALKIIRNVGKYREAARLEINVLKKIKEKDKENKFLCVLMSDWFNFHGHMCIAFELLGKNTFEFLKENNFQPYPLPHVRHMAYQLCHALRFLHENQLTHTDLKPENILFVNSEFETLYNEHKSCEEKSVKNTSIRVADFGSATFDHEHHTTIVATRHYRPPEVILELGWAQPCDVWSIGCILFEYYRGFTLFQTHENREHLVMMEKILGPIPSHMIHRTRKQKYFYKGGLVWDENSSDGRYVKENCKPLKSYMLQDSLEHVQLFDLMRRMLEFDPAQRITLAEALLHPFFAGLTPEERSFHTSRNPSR
Cyclin-dependent kinase 8 (Homo sapiens), sequence (P49336 whole entry): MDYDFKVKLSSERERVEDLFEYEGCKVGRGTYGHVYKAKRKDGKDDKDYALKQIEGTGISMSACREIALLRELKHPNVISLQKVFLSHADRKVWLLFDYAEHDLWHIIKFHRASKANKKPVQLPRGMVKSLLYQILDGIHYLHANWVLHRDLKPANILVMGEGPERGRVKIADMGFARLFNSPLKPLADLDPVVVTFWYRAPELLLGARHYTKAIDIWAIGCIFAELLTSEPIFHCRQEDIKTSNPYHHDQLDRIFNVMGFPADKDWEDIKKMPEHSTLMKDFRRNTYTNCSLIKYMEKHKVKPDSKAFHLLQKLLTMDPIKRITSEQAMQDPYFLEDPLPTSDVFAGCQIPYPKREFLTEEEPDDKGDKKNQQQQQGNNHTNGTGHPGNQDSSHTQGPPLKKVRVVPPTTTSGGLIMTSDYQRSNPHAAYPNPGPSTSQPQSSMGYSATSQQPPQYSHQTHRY
Ephrin type-B receptor 6 (Homo sapiens), sequence (O15197 whole entry): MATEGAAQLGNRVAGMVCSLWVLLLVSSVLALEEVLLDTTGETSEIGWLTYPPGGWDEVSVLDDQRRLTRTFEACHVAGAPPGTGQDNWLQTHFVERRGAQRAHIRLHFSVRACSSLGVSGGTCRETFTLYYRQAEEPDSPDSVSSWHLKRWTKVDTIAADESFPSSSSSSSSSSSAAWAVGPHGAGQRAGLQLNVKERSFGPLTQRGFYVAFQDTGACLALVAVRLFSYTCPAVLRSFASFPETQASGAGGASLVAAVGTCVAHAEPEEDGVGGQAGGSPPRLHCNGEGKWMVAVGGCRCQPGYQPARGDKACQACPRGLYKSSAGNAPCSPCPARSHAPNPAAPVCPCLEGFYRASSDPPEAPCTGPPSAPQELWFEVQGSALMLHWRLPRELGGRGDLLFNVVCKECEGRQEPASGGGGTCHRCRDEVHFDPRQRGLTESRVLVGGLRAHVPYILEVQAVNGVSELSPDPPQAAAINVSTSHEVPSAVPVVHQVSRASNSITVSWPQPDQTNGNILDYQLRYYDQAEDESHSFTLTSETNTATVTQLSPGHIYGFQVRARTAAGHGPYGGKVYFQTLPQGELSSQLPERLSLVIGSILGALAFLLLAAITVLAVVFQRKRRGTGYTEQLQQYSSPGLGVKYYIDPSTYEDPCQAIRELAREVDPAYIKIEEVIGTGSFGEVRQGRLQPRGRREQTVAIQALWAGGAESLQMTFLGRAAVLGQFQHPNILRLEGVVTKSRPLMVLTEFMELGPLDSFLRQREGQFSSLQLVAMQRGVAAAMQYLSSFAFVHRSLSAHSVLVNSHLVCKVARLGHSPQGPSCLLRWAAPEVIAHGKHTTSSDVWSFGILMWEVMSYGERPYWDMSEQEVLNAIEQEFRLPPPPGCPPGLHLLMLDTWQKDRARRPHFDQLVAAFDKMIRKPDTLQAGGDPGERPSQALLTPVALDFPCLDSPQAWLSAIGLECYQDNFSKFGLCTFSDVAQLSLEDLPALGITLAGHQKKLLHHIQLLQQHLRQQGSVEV
Protein kinase C eta type (Homo sapiens), sequence (P24723 whole entry): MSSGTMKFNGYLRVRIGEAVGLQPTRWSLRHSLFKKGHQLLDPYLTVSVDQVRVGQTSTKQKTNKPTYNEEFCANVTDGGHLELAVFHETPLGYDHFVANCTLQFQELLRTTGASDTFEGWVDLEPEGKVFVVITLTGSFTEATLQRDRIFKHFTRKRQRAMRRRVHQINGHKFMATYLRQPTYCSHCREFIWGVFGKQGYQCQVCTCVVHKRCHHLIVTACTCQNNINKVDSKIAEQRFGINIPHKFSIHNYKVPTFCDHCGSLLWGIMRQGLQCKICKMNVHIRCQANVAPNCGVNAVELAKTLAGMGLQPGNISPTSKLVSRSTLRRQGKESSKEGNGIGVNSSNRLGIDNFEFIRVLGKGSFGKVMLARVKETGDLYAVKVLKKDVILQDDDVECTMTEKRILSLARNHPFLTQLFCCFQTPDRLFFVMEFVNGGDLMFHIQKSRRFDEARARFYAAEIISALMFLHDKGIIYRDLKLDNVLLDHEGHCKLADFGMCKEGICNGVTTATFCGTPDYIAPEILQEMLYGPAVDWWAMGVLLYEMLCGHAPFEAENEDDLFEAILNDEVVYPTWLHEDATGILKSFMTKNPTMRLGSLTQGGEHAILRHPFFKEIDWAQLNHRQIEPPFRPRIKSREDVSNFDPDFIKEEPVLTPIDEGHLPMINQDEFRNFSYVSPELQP
Sigma intracellular receptor 2 (Homo sapiens), sequence (Q5BJF2 whole entry): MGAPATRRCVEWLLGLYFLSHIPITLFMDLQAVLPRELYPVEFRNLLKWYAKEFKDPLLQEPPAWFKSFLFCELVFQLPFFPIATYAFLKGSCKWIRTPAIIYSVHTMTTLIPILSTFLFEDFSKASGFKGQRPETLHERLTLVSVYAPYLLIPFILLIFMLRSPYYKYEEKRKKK

SMILES | residual activity [1] | residual activity [2] | residual activity [3] | residual activity [4] | residual activity [5] | residual activity [6] | residual activity [7] | residual activity [8] | inhibition [9] | residual activity [10] | residual activity [11] | residual activity [12] | residual activity [13] | residual activity [14] | residual activity [15] | residual activity [16] | inhibition [17] | residual activity [18] | residual activity [19] | inhibition [20] | further results
Cn1cncc1[C@@](O)(COc1ccc(C#N)cc1-c1ccc(OC(F)(F)F)cc1)c1ccc(C#N)cc1 [A-108] | 80% | 100% | 100% | 100% | 94% | 95% | 100% | 91% | 5.97% | 100% | 100% | 95% | 91% | 100% | 97% | 100% | 6.23% | 79% | 72% | 1.27% | residual activity [21]: 87%; residual activity [22]: 84%; residual activity [23]: 85%; residual activity [24]: 100%; residual activity [25]: 100%; residual activity [26]: 100%; residual activity [27]: 100%; residual activity [28]: 99%; residual activity [29]: 100%; residual activity [30]: 100%; inhibition [31]: 37.8%; residual activity [32]: 70%; residual activity [33]: 95%; residual activity [34]: 90%; residual activity [35]: 98%; residual activity [36]: 97%; residual activity [37]: 91%; residual activity [38]: 95%; residual activity [39]: 85%; residual activity [40]: 100%
Cn1cncc1[C@](O)(COc1ccc(C#N)cc1-c1ccc(OC(F)(F)F)cc1)c1ccc(C#N)cc1 [ABT-100] | 75% | 97% | 100% | 100% | 96% | 100% | 100% | 96% | 16.6% | 100% | 75% | 91% | 90% | 63% | 82% | 79% | -1.32% | 74% | 94% | -7.18% | residual activity [21]: 94%; residual activity [22]: 95%; residual activity [23]: 100%; residual activity [24]: 91%; residual activity [25]: 95%; residual activity [26]: 93%; residual activity [27]: 100%; residual activity [28]: 46%; residual activity [29]: 100%; residual activity [30]: 66%; inhibition [31]: 40.3%; residual activity [32]: 100%; residual activity [33]: 74%; residual activity [34]: 87%; residual activity [35]: 94%; residual activity [36]: 77%; residual activity [37]: 71%; residual activity [38]: 94%; residual activity [39]: 100%; residual activity [40]: 80%
